We go through one compound from patent publication US9504697B2, “Progesterone treatment for improving sleep quality” (BESINS Healthcare Luxembourg SARL, priority 2011, dated 2016).

Each structure is given as a SMILES string.

The subject of assay [1] is postmenopausal women. Description: Polygraphic sleep recordings in randomized, double-blind, placebo-controlled study, prevention of sleep disturbances. Type of assay: in vivo, human. As to the method:
Eight postmenopausal women, aged 48-74 yr (mean 57.4 yr), were selected after a careful clinical and biological evaluation. Investigations were performed 2-17 years (mean: 8.0 years) after natural menopause (seven subjects) or bilateral ovariectomy (one subject). Mean age at menopause was 49.4 years (range: 41-57 yr). Three subjects had never received hormone replacement therapy, and five subjects had been off such treatment for 2-6 months (mean: 4.4 months) at the time of enrollment. Body weight was in the normal range for all (mean+/-SEM of body mass index 22.1+/-0.8 kg/m2). In all subjects, estradiol plasma levels were <10 ng/liter. FSH plasma levels averaged 90 IU/liter (range: 66-136 IU/liter). The protocol was designed as a randomized, double-blind, placebo-controlled study. Thereafter, all subjects participated in random order in two studies (referred to as placebo and progesterone), separated from each other by at least 1 month. The placebo study preceded the progesterone study in four subjects and followed the progesterone study in the other four volunteers. Each study included an initial 20 day ambulatory period. During this period, the subjects were asked to maintain regular sleep-wake cycles (bedtime 2300-0700 h in darkness) and meal schedules (0800 h, 1230 h, 1900 h). They took daily, at 2300 h, a capsule of either 300 mg of progesterone or placebo. At the end of the ambulatory period, they were admitted at about 1600 h to the sleep laboratory for 44 hours. During hospitalization, subjects were maintained in a seated/upright position in normal indoor light conditions (+/-300 lux), and no naps were allowed during the scheduled wake periods (0700-2300 h). Meals were served at 0800 h, 1230 h, and 1900 h. At 2300 h, they received their usual capsule of either 300 mg of progesterone or placebo. During both scheduled sleep periods (2300-0700 h), subjects were kept recumbent in total darkness and sleep was polygraphically recorded. On the morning after the first night, a sterile heparin-lock catheter was inserted intravenously in the forearm and blood samples were collected for 24 hours at 15-minute intervals. The iv line was kept permeable by a slow drip of heparinized saline. During the sleep period, the indwelling catheter was connected to plastic tubing extending to an adjacent room and blood samples were collected remotely, as previously described (Leproult et al., 2005, Clin. Endocrinol. 63: 298-304). The total amount of blood withdrawn was less than 300 ml for each inpatient study. The subjects were discharged at about 1200 h after the second night. Polygraphic sleep recordings were visually scored at 30 second intervals, using standardized criteria ([…] and Kales, 1968, Los Angeles: UCLA Brain Information Service/Brain Research Institute) by the same experienced scorer who was blind to the clinical condition of the subject. Sleep onset and morning awakening were defined as, respectively, the times of the first and last 30 second intervals scored II, III, IV, or rapid eye movement (REM). The sleep period was defined as the time interval separating sleep onset and final awakening. Total sleep time was defined as the sleep period minus the total duration of wake after sleep onset (WASO). Sleep latency was defined as the time interval from lights off until sleep onset. Sleep efficiency was calculated as the total sleep time, expressed as percentage of the time allocated to sleep. Slow-wave sleep (SWS) was defined as stages III+IV. A spectral analysis was performed on the central electroencephalogram lead (PRANA, PhiTools, Strasbourg, France) (Latta et al., 2005, Sleep 28: 1525-1534). Muscular, ocular, and movement artifacts were eliminated before spectral analysis. Delta activity was calculated as the absolute spectral power in the frequency band 0.5-4 Hz. Mean delta power was calculated per 30-sec epoch. Delta power in non-REM sleep quantifies slow-wave activity (SWA) (i.e., the intensity of SWS). […]

Assay [2] relates to postmenopausal women. Description: Hormone levels (GH, IGF-I, TSH, free T4) from 24 hour blood sampling in the placebo-controlled study. Type of assay: in vivo, human. As to the method: Each study included an initial 20 day ambulatory period. During this period, the subjects were asked to maintain regular sleep-wake cycles (bedtime 2300-0700 h in darkness) and meal schedules (0800 h, 1230 h, 1900 h). They took daily, at 2300 h, a capsule of either 300 mg of progesterone or placebo.
At the end of the ambulatory period, they were admitted at about 1600 h to the sleep laboratory for 44 hours. During hospitalization, subjects were maintained in a seated/upright position in normal indoor light conditions (+/−300 lux), and no naps were allowed during the scheduled wake periods (0700-2300 h). Meals were served at 0800 h, 1230 h, and 1900 h. At 2300 h, they received their usual capsule of either 300 mg of progesterone or placebo. During both scheduled sleep periods (2300-0700 h), subjects were kept recumbent in total darkness and sleep was polygraphically recorded.
On the morning after the first night, a sterile heparin-lock catheter was inserted intravenously in the forearm and blood samples were collected for 24 hours at 15-minute intervals. The iv line was kept permeable by a slow drip of heparinized saline. During the sleep period, the indwelling catheter was connected to plastic tubing extending to an adjacent room and blood samples were collected remotely, as previously described (Leproult et al., 2005, Clin. Endocrinol. 63: 298-304). The total amount of blood withdrawn was less than 300 ml for each inpatient study. The subjects were discharged at about 1200 h after the second night.
Nonparametric tests (Friedman test, Wilcoxon signed rank test, Spearman rank test) were used for statistical calculations (StatView SE+ software for Macintosh computers, Abacus Concepts Inc., Berkeley, Calif.). Detection of outliers was performed by the Grubbs test (Grubbs, 1969, Technometrics 11:1-21; Grubbs and Beck, 1972, Technometrics 14:847-854). All group values are expressed as the mean+/−SEM.
Levels of growth hormone (GH) and thyroid-stimulating hormone (TSH) also were assessed.

For a further assay, the system named is men. The following applies: men orally administered 300 mg progesterone; cited from earlier work.
Another assay concerns post-menopausal women. The following applies: post-menopausal women administered 300 mg progesterone; cited from earlier work.
Where [3] appears, read: night 2 (with catheter), P=0.04.

Regarding `CC(=O)[C@H]1CC[C@H]2[C@@H]3CCC4=CC(=O)CC[C@]4(C)[C@H]3CC[C@]12C` [progesterone, pregn-4-ene-3,20-dione], in the assay with postmenopausal women [1] (night 1 (without catheter), 300 mg daily at 2300 h, after 20 day ambulatory period), the “sleep duration and architecture, placebo versus progesterone treatment” value is given as “no differences”. The “sleep latency, stage I, stage II, REM sleep, and REM latency, progesterone versus placebo” value with postmenopausal women [1] (night 2 (with catheter)) is “no differences”. In addition, in the assay on postmenopausal women [1] (setting [3]), the “sleep efficiency higher under progesterone compared with placebo” value is 15%, the “total SWA higher under progesterone compared with placebo” value was “more than 40%” and the “total sleep time higher under progesterone compared with placebo” value was determined as 20%. For the same compound, the “mean WASO duration lower under progesterone compared with placebo” value with postmenopausal women [1] (night 2 (with catheter), P=0.05) is reported as “more than 50%”. Besides, in the assay with postmenopausal women [1] (night 2 (with catheter), all eight subjects, mean+/-SEM), the SWS duration came out at 84 ± 10 min. For the same compound, the “SWS duration, outlier excluded” value with postmenopausal women [1] (night 2 (with catheter), outlier excluded from the analysis, mean+/-SEM, P=0.04 vs placebo) was found to be 79 ± 10 min. In the assay on postmenopausal women [1] (under progesterone 300 mg daily, night 2 with iv catheter), the “other sleep variables, night 2 compared with night 1” value is “not significantly altered”. In the assay with postmenopausal women [1] (under progesterone 300 mg daily, night 2 with iv catheter, P=0.04), the “decrease in stage II, night 2 compared with night 1” value was “about 20%”. Moreover, in the assay with postmenopausal women [1] (under progesterone 300 mg daily, night 2 with iv catheter, P=0.05), the “decrease in total sleep time, night 2 compared with night 1” value was “about 20%”. Besides, the “decrease in sleep efficiency, night 2 compared with night 1” value with postmenopausal women [1] (under progesterone 300 mg daily, night 2 with iv catheter, P=0.07) is recorded as “about 20%”. Also, the “GH secretion over the scheduled wake period” value in the assay on postmenopausal women [2] (0700-2300 h, mean+/-SEM, similar under both conditions) came to 239 ± 91 µg. The “slope of the linear regression of TSH values over the 2300-0100 period” value in the assay with postmenopausal women [2] (2300-0100 period, P=0.05) is recorded as “significant negative slope”. For the same compound, in the assay on postmenopausal women [2] (2300-0700 period, P=0.05 vs placebo), the “TSH levels over the 2300-0700 period” value is 0.98+/−0.18 mU/l. Besides, in the assay with postmenopausal women [2] (2300-0700 h, mean+/-SEM, P=0.05 vs placebo), the “GH secretion over the scheduled sleep period” value is 154 ± 44 µg. In addition, the “24 hour TSH levels” value with postmenopausal women [2] (24 hour, P=0.07 vs placebo) is 0.91+/−0.13 mU/l. In the assay on postmenopausal women [2] (24 hour, P=0.53 vs placebo), the “24 hour free T4 levels” value was 10.3 ± 0.4 ng/L. The IGF-I levels in the assay with postmenopausal women [2] (measured on 2-3 morning plasma samples, P=0.09 vs placebo) amounted to 103 ± 23 µg/L. In addition, in the assay with men, the “effect on sleep pattern” value is “increase of stage N2 time and decrease of stage N3 time and of REM sleep”. Besides, in the assay on post-menopausal women, the “intermittent time spent awake and REM sleep in the first third of the night” value is “decrease of intermittent time spent awake and increase in REM sleep in the first third of the night”; the “total duration of REM, Stage 2 or SWS, absolute power spectra; baseline, placebo and progesterone” value is reported as “no significant differences”.
